Molecular target: human PAD4 (hPAD4) (Homo sapiens, UniProt Q9UM07)
Assay: RFMS human PAD4 functional assay (rapid-fire mass spectrum)
Type: biochemical
Settings: 5 nM hPAD4 enzyme, 250 μM BAEE, 50 μM Calcium; 30 min preincubation, 90 min reaction at 37° C.
In short: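 PAD4 (10 nM) preincubated 30 min with compound (top final 50 μM), then BAEE substrate added in pH 7.5 HEPES buffer with DTT, 50 μM calcium, TPEN; 90 min at 37° C. After TCA quench, citrulline derivatized with phenyl glyoxal (4 mM final, 30 min, 37° C) and quantified by RapidFire MS against internal standard.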

human PAD4 (hPAD4), sequence (Q9UM07 whole entry): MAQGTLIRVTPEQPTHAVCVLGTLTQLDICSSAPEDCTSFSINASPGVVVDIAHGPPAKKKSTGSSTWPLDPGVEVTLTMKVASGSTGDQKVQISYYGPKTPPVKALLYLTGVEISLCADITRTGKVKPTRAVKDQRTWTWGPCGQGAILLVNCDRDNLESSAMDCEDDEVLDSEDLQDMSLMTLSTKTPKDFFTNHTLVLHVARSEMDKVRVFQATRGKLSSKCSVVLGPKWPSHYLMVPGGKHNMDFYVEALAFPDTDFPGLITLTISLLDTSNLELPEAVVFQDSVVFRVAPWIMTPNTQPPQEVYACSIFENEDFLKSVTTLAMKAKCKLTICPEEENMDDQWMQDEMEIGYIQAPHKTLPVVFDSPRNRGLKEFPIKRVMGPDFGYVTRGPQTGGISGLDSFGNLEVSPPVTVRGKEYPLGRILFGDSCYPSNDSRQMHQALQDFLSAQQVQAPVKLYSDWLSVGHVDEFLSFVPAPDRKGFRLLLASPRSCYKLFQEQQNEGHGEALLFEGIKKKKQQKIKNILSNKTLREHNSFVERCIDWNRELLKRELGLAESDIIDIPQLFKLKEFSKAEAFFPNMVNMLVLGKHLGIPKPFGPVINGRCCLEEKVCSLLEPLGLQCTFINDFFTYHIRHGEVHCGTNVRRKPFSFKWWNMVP

| IC50 [µM] | SMILES |
| --- | --- |
| 0.011 | COc1cc(C(=O)N2CC(Cn3c(-c4cc5ccccc5n4CC4CC4)nc4cc(C(=O)N5CC6CCC5[C@@H]6N)cc(OC)c43)C2)ccn1 (stereo partly drawn) [Example 417, (7R)-2-{2-[1-(cyclopropylmethyl)-1H-indol-2-yl]-7-methoxy-1-{[1-(2-methoxypyridine-4-carbonyl)azetidin-3-yl]methyl}-1H-1,3-benzodiazole-5-carbonyl}-2-azabicyclo[2.2.1]heptan-7-amine] |
| 0.068 | COc1cc(C(=O)N2CC3CCC2[C@@H]3N)cc2nc(-c3cc4ccccc4n3CC3CC3)n(CC3CN(C(=O)c4cc[n+]([O-])cc4)C3)c12 (stereo partly drawn) [Example 461, 4-[3-({5-[(7R)-7-amino-2-azabicyclo[2.2.1]heptane-2-carobnyl]-2-[1-(cyclopropylmethyl)-1H-indol-2-yl]-7-methoxy-1H-1,3-benzodiazol-1-yl}methyl)azetidine-1-carbonyl]pyridin-1-ium-1-olate] |
| 0.068 | COc1ccc2cc(-c3nc4cc(C(=O)N5C[C@H]6CC[C@@H]5[C@@H]6N)cc(OC)c4n3CC3CN(c4ncncc4C#N)C3)n(CC3CC3)c2n1 [Example 24, 4-[3-({5-[(1R,4R,7R)-7-amino-2-azabicyclo[2.2.1]heptane-2-carbonyl]-2-[1-(cyclopropylmethyl)-6-methoxy-1H-pyrrolo[2,3-b]pyridin-2-yl]-7-methoxy-1H-1,3-benzodiazol-1-yl}methyl)azetidin-1-yl]pyrimidine-5-carbonitrile] |
| 0.037 | COc1cc(C(=O)N2CC3CCC2[C@@H]3N)cc2nc(-c3cc4ccccc4n3CC3CC3)n(C[C@H]3CCN(C(=O)c4ccc(C#N)cc4)C3)c12 (stereo partly drawn) [Example 226, 4-[(3S)-3-({5-[(1R,4R,7R)-7-aminobicyclo[2.2.1]heptane-2-carbonyl]-2-[1-(cyc1opropylmethyl)-1H-indo1-2-yl]-7-methoxy-1H-1,3-benzodiazol-1-yl}methyl)pyrrolidine-1-carbonyl]benzonitrile] |
| 0.037 | COc1cc(C(=O)N2C[C@H]3CC[C@@H]2[C@@H]3N)cc2nc(-c3cc4ccccc4n3CC3CC3)n(CC3CN(c4cncnc4C#N)C3)c12 [Example 11, 5-[3-({5-[(1R,4R,7R)-7-amino-2-azabicyclo[2.2.1]heptane-2-carbonyl]-2-[1-(cyclopropylmethyl)-1H-indol-2-yl]-7-methoxy-1H-1,3-benzodiazol-1-yl}methyl)azetidin-1-yl]pyrimidine-4-carbonitrile] |
| 0.04 | CCC#CC(=O)N1CC(Cn2c(-c3cc4cccnc4n3CC3CC3)nc3cc(C(=O)N4C[C@H]5CC[C@@H]4[C@@H]5N)cc(OC)c32)C1 [Example 108, 1-[3-({5-[(1R,4R,7R)-7-amino-2-azabicyclo[2.2.1]heptane-2-carbonyl]-2-[1-(cyclopropylmethyl)-1H-pyrrolo[2,3-b]pyridin-2-yl]-7-methoxy-1H-1,3-benzodiazol-1-yl}methyl)azetidin-1-yl]pent-2-yn-1-one] |
| 0.043 | COc1cc(C(=O)N2CC3CCC2[C@@H]3N)cc2nc(-c3cc4ccccc4n3CC3CC3)n(CC3CN(C(=O)c4ncccn4)C3)c12 (stereo partly drawn) [Example 446, (7R)-2-{2-[1-(cyclopropylmethyl)-1H-indol-2-yl]-7-methoxy-1-{[1-(pyrimidine-2-carbonyl)azetidin-3-yl]methyl}-1H-1,3-benzodiazole-5-carbonyl}-2-azabicyclo[2.2.1]heptan-7-amine] |
| 0.256 | COc1cc(C(=O)N2C[C@H](N)C[C@@H](F)C2)cc2nc(-c3cc4cccnc4n3CC3CC3)n(Cc3cn(C)nc3C)c12 [Example 507, (3R,5R)-1-{2-[1-(cyclopropylmethyl)-1H-pyrrolo[2,3-b]pyridin-2-yl]-1-[(1,3-dimethyl-1H-pyrazol-4-yl)methyl]-7-methoxy-1H-1,3-benzodiazole-5-carbonyl}-5-fluoropiperidin-3-amine] |
| 0.018 | COc1cc(C(=O)N2C[C@H]3CC[C@@H]2[C@@H]3N)cc2nc(-c3cc4ccccc4n3CC3CC3)n(CC3CN(C(=O)c4ccccc4)C3)c12 [Example 145, (1R,4R,7R)-2-{1-[(1-benzoylazetidin-3-yl)methyl]-2-[1-(cyclopropylmethyl)-1H-indol-2-yl]-7-methoxy-1H-1,3-benzodiazole-5-carbonyl}-2-azabicyclo[2.2.1]heptan-7-amine] |
| 0.035 | COc1cc(C(=O)N2CC3CCC2[C@@H]3N)cc2nc(-c3cc4cccnc4n3CC3CC3)n(Cc3cnn(-c4cccnc4O)c3)c12 (stereo partly drawn) [Example 374, 3-[4-({5-[(7R)-7-amino-2-azabicyclo[2.2.1]heptane-2-carbonyl]-2-[1-(cyclopropylmethyl)-1H-pyrrolo[2,3-b]pyridin-2-yl]-7-methoxy-1H-1,3-benzodiazol-1-yl}methyl)-1H-pyrazol-1-yl]pyridin-2-ol] |
| 0.059 | COc1cc(C(=O)N2C[C@H](N)C[C@@H](F)C2)cc2nc(-c3cc4cccnc4n3CC3CC3)n(Cc3cnn(-c4ncccn4)c3)c12 [Example 401, (3R,5R)-1-{2-[1-(cyclopropylmethyl)-1H-pyrrolo[2,3-b]pyridin-2-yl]-7-methoxy-1-{[1-(pyrimidin-2-yl)-1H-pyrazol-4-yl]methyl}-1H-1,3-benzodiazole-5-carbonyl}-5-fluoropiperidin-3-amine] |
| 0.045 | COc1cc(C(=O)N2CC3CCC2[C@@H]3N)cc2nc(-c3cc4cccnc4n3CC3CC3)n(Cc3cnn(CC#N)c3)c12 (stereo partly drawn) [Example 390, 2-[4-({5-[(7R)-7-amino-2-azabicyclo[2.2.1]heptane-2-carbonyl]-2-[1-(cyclopropylmethyl)-1H-pyrrolo[2,3-b]pyridin-2-yl]-7-methoxy-1H-1,3-benzodiazol-1-yl}methyl)-1H-pyrazol-1-yl]acetonitrile] |
| 0.093 | COc1cc(C(=O)N2C[C@H]3CC[C@@H]2[C@@H]3N)cc2nc(-c3cc4cccnc4n3CC3CC3)n(CC3CN(c4ncncc4C#N)C3)c12 [Example 37, 4-[3-({5-[(1R,4R,7R)-7-amino-2-azabicyclo[2.2.1]heptane-2-carbonyl]-2-[1-(cyclopropylmethyl)-1H-pyrrolo[2,3-b]pyridin-2-yl]-7-methoxy-1H-1,3-benzodiazol-1-yl}methyl)azetidin-1-yl]pyrimidine-5-carbonitrile] |
| 0.118 | COc1cc(C(=O)N2C[C@H]3CC[C@@H]2[C@@H]3N)cc2nc(-c3cc4cccnc4n3CC3CC3)n(CC3CN(c4cncnc4C#N)C3)c12 [Example 46, 5-[3-({5-[(1R,4R,7R)-7-amino-2-azabicyclo[2.2.1]heptane-2-carbonyl]-2-[1-(cyclopropylmethyl)-1H-pyrrolo[2,3-b]pyridin-2-yl]-7-methoxy-1H-1,3-benzodiazol-1-yl}methyl)azetidin-1-yl]pyrimidine-4-carbonitrile] |
| 0.552 | COc1cc(C(=O)N2C[C@H]3CC[C@@H]2[C@@H]3N)cc2nc(-c3cccn3CC3CC3)n(CC3CN(c4ccnc(C)n4)C3)c12 [Example 314, (1R,4R,7R)-2-{2-[1-(cyclopropylmethyl)-1H-pyrrol-2-yl]-7-methoxy-1-{[1-(2-methylpyrimidin-4-yl)azetidin-3-yl]methyl}-1H-1,3-benzodiazole-5-carbonyl}-2-azabicyclo[2.2.1]heptan-7-amine] |
| 0.075 | COc1cc(C(=O)N2C[C@H]3CC[C@@H]2[C@@H]3N)cc2nc(-c3cc4cccnc4n3C)n(C[C@H]3CCN(c4ccnc(C#N)n4)C3)c12 [Example 210, 4-[(3S)-3-({5-[(1R,4R,7R)-7-amino-2-azabicyclo[2.2.1]heptane-2-carbonyl]-7-methoxy-2-{1-methyl-1H-pyrrolo[2,3-b]pyridin-2-yl}-1H-1,3-benzodiazol-1-yl}methyl)pyrrolidin-1-yl]pyrimidine-2-carbonitrile] |
| 0.042 | COc1cc(C(=O)N2CC3CCC2[C@@H]3N)cc2nc(-c3cc4ccccc4n3CC3CC3)n(CC3CN(C(=O)[C@H]4C[C@@H]4C)C3)c12 (stereo partly drawn) [Example 172, (1R,4R,7R)-2-{2-[1-(cyclopropylmethyl)-1H-indol-2-yl]-7-methoxy-1-({1-[(1S,2S)-2-methylcyclopropanecarbonyl]aze-tidin-3-yl}methyl)-1H-1,3-benzodiazole-5-carbonyl}-2-azabicyclo[2.2.1]heptan-7-amine] |
| 0.074 | COc1cc(C(=O)N2CC3CCC2[C@@H]3N)cc2nc(-c3cc4cccnc4n3CC3CC3)n(Cc3cnn(-c4cncnc4)c3)c12 (stereo partly drawn) [Example 408, (7R)-2-{2-[1-(cyclopropylmethyl)-1H-pyrrolo[2,3-b]pyridin-2-yl]-7-methoxy-1-{[1-(pyrimidin-5-yl)-1H-pyrazol-4-yl]methyl}-1H-1,3-benzodiazole-5-carbonyl}-2-azabicyclo[2.2.1]heptan-7-amine] |
| 0.018 | COc1cc(C(=O)N2C[C@H]3CC[C@@H]2[C@@H]3N)cc2nc(-c3cc4ccccc4n3CC3CC3)n(CC3CN(C(=O)c4ccccc4Cl)C3)c12 [Example 146, (1R,4R,7R)-2-(1-{[1-(2-chlorobenzoyl)azetidin-3-yl]methyl}-2-[1-(cyclopropylmethyl)-1H-indol-2-yl]-7-methoxy-1H-1,3-benzodiazole-5-carbonyl)-2-azabicyclo[2.2.1]heptan-7-amine] |
| 0.037 | COc1cc(C(=O)N2CC3CCC2[C@@H]3N)cc2nc(-c3cc4ccccc4n3CC3CC3)n(Cc3cnn(-c4cccc(C)n4)c3)c12 (stereo partly drawn) [Example 381, (7R)-2-{2-[1-(cyclopropylmethyl)-1H-indol-2-yl]-7-methoxy-1-{[1-(6-methylpyridin-2-yl)-1H-pyrazol-4-yl]methyl}-1H-1,3-benzodiazole-5-carbonyl}-2-azabicydo[2.2.1]heptan-7-amine] |
| 2.66 | COc1cc(C(=O)N2C[C@H](N)C[C@@H](F)C2)cc2nc(-c3cc4ccccc4n3CC3CC3)n(Cc3ccccn3)c12 [Example 293, (3R,5R)-1-{2-[1-(cyclopropylmethyl)-1H-indol-2-yl]-7-methoxy-1-[(pyridin-2-yl)methyl]-1H-1,3-benzodiazole-5-carbonyl}-5-fluoropiperidin-3-amine] |

Reference: patent publication US12692254B2, “Benzimidazole inhibitors of PAD enzymes” (BRISTOL-MYERS SQUIBB COMPANY, priority 2018, dated 2026)
